From patent publication US20160250213A1, “FORMULATIONS OF AZAINDOLE COMPOUNDS” (priority 2013, published 2016)
Where two headings read alike, the source gives them in different places.

What was measured:
A/Hong Kong/8/68 (H3N2) = experiment: microbe, parasite or virus in culture; type: cell-based; conditions: Influenza A virus, MDCK, read-out: Cell Protection Assay EC50 ± SD
[1] = tested on: Influenza A/Vietnam/1203/2004 (H5N1) virus; set-up: species or system BALB/c mice; conditions: mouse, in vivo
A/Georgia/17/2006 (H1N1) = experiment: microbe, parasite or virus in culture; type: cell-based; conditions: Influenza A virus, MDCK, read-out: Cell Protection Assay EC50 ± SD
A/Aichi/2/68 (H3N2) = experiment: microbe, parasite or virus in culture; type: cell-based; conditions: Influenza A virus, MDCK, read-out: Cell Protection Assay EC50 ± SD
[2] = tested on: influenza A/PR/8/34 (5×10^3 TCID50); set-up: species or system mice; conditions: mouse, in vivo
A/Hawaii/2/2006 (H3N2) = experiment: microbe, parasite or virus in culture; type: cell-based; conditions: Influenza A virus, MDCK, read-out: Cell Protection Assay EC50 ± SD
A/Swine/1976/31 (H1N1) = experiment: microbe, parasite or virus in culture; type: cell-based; conditions: Influenza A virus, H1N1, MDCK, in Sus scrofa, read-out: Cell Protection Assay EC50 ± SD
A/Mal/302/54 (H1N1) = experiment: microbe, parasite or virus in culture; type: cell-based; conditions: Influenza A virus, MDCK, read-out: Cell Protection Assay EC50 ± SD
A/Florida/3/2006 (H1N1) = experiment: microbe, parasite or virus in culture; type: cell-based; conditions: Influenza A virus, MDCK, read-out: Cell Protection Assay EC50 ± SD
[3] = tested on: Influenza A/California/04/2009 (pndH1N1) virus; type: in vivo, BALB/c mice
[4] = tested on: influenza A/Wisconsin/67/2005 (H3N2) challenge strain virus; type: in vivo, humans (healthy volunteers); conditions: for Viral Shedding by Tissue Culture, AUC, median: Days 1-7
[5] = tested on: influenza A/Wisconsin/67/2005 (H3N2) challenge strain virus; type: in vivo, humans (healthy volunteers); conditions: for Composite Clinical Symptom, AUC, median / Influenza like Symptom, AUC, median: Day 1 through Day 7
[6] = tested on: influenza A/Wisconsin/67/2005 (H3N2) challenge strain virus; type: in vivo, humans (healthy volunteers)
[7] = 1 mg/kg p.o. twice a day for 10 days starting 2 hours prior to virus exposure
[8] = 3 mg/kg p.o. twice a day for 10 days starting 2 hours prior to virus exposure
[9] = 10 mg/kg p.o. twice a day for 10 days starting 2 hours prior to virus exposure
[10] = 100 mg QD 5 days, FA set N = 12
[11] = 400 mg QD 5 days, FA set N = 12
[12] = 900 mg Day 1, 600 mg Days 2-5, FA set N = 14
[13] = 1200 mg Day 1, 600 mg Days 2-5, FA set N = 14
[14] = pooled Compound (1) dose groups, FA set N = 52
[15] = 900 mg Day 1, 600 mg Days 2-5, N = 14
[16] = 1200 mg Day 1, 600 mg Days 2-5, N = 14
[17] = pooled Compound (1) dose groups, N = 52

## O=C(O)[C@H]1C2CCC(CC2)C1Nc1nc(-c2c[nH]c3ncc(F)cc23)ncc1F (some centres unmarked) [Compound (1)]
A/Hong Kong/8/68 (H3N2)
  EC50: 0.6 ± 0.11 nM
[1]
  MDD ± SD (mean day of death of mice that died on or before day 21): >21
  Mean Lung Parameters (Day 6): Virus Titer: 3.75 ± 0.94 Log 10 CCID50/g
  Survivors/Total: 10/10
A/Georgia/17/2006 (H1N1)
  EC50: 0.13 ± 0.048 nM
A/Aichi/2/68 (H3N2)
  EC50: 1.4 ± 1.1 nM
[2]; 0.1 mg/kg
  Survival Rate: 12.5
[2]; 0.3 mg/kg
  Survival Rate: 44.4
[2]; 1 mg/kg
  Survival Rate: 100
A/Hawaii/2/2006 (H3N2)
  EC50: 1.4 ± 0.91 nM
A/Swine/1976/31 (H1N1)
  EC50: 0.47 ± 0.11 nM
A/Mal/302/54 (H1N1)
  EC50: 0.57 ± 0.055 nM
A/Florida/3/2006 (H1N1)
  EC50: 0.92 ± 1.5 nM
[3]; [7]
  Mean Lung Parameters (Day 6): Score (hemorrhage, 0 to 4): 0.6
  Mean Lung Parameters (Day 6): Virus Titer: 5.5 Log10 CCID50/g
  Mean Lung Parameters (Day 6): Weight: 246 mg
[3]; [8]
  Mean Lung Parameters (Day 6): Score (hemorrhage, 0 to 4): 0.0
  Mean Lung Parameters (Day 6): Virus Titer: 3.1 Log10 CCID50/g
  Mean Lung Parameters (Day 6): Weight: 123 mg
[3]; [9]
  Mean Lung Parameters (Day 6): Score (hemorrhage, 0 to 4): 0.2
  Mean Lung Parameters (Day 6): Virus Titer: <2.6^d*** Log10 CCID50/g
  Mean Lung Parameters (Day 6): Weight: 132 mg
[4]; [10]
  Viral Shedding by Tissue Culture, Duration, median: 0.96 days
  Viral Shedding by Tissue Culture, Peak, mean: 2.09 log10 TCID50/mL
  Viral Shedding by Tissue Culture, AUC, median: 1.25 log10 TCID50 mL*Day
[4]; [11]
  Viral Shedding by Tissue Culture, Duration, median: 1.60 days
  Viral Shedding by Tissue Culture, Peak, mean: 1.73 log10 TCID50/mL
  Viral Shedding by Tissue Culture, AUC, median: 0.70 log10 TCID50 mL*Day
[4]; [12]
  Viral Shedding by Tissue Culture, Duration, median: 2.71 days
  Viral Shedding by Tissue Culture, Peak, mean: 2.68 log10 TCID50/mL
  Viral Shedding by Tissue Culture, AUC, median: 3.20 log10 TCID50 mL*Day
[4]; [13]
  Viral Shedding by Tissue Culture, Duration, median: 0.00 days
  Viral Shedding by Tissue Culture, Peak, mean: 1.00 log10 TCID50/mL
  Viral Shedding by Tissue Culture, AUC, median: 0.35 log10 TCID50 mL*Day
[4]; [14]
  Viral Shedding by Tissue Culture, Duration, median: 0.71 days
  Viral Shedding by Tissue Culture, Peak, mean: 1.87 log10 TCID50/mL
  Viral Shedding by Tissue Culture, AUC, median: 0.65 log10 TCID50 mL*Day
[5]; 100 mg QD 5 days, N = 12
  Composite Clinical Symptom, Duration, median: 3.21 days
  Composite Clinical Symptom, Peak, mean: 3.17 Grade
  Influenza like Symptom, Duration, median: 3.21 days
  Influenza like Symptom, Peak, mean: 2.75 Grade
  Composite Clinical Symptom, AUC, median: 1.85 Grade*Day
  Influenza like Symptom, AUC, median: 1.85 Grade*Day
[5]; 400 mg QD 5 days, N = 12
  Composite Clinical Symptom, Duration, median: 3.34 days
  Composite Clinical Symptom, Peak, mean: 2.83 Grade
  Influenza like Symptom, Duration, median: 3.34 days
  Influenza like Symptom, Peak, mean: 2.42 Grade
  Composite Clinical Symptom, AUC, median: 4.70 Grade*Day
  Influenza like Symptom, AUC, median: 3.80 Grade*Day
[5]; [15]
  Composite Clinical Symptom, Duration, median: 2.69 days
  Composite Clinical Symptom, Peak, mean: 3.71 Grade
  Influenza like Symptom, Duration, median: 2.69 days
  Influenza like Symptom, Peak, mean: 3.21 Grade
  Composite Clinical Symptom, AUC, median: 1.75 Grade*Day
  Influenza like Symptom, AUC, median: 1.75 Grade*Day
[5]; [16]
  Composite Clinical Symptom, Duration, median: 1.88 days
  Composite Clinical Symptom, Peak, mean: 1.50 Grade
  Influenza like Symptom, Duration, median: 1.88 days
  Influenza like Symptom, Peak, mean: 1.36 Grade
  Composite Clinical Symptom, AUC, median: 1.95 Grade*Day
  Influenza like Symptom, AUC, median: 1.75 Grade*Day
[5]; [17]
  Composite Clinical Symptom, Duration, median: 2.34 days
  Composite Clinical Symptom, Peak, mean: 2.79 Grade
  Influenza like Symptom, Duration, median: 2.34 days
  Influenza like Symptom, Peak, mean: 2.42 Grade
  Composite Clinical Symptom, AUC, median: 2.15 Grade*Day
  Influenza like Symptom, AUC, median: 2.05 Grade*Day
[6]; [10]
  Viral Shedding by qRT-PCR, AUC, median: 6.05 log10 copies/mL*Day
  Viral Shedding by qRT-PCR, Duration, median: 0.96 days
[6]; [11]
  Viral Shedding by qRT-PCR, AUC, median: 4.90 log10 copies/mL*Day
  Viral Shedding by qRT-PCR, Duration, median: 1.36 days
[6]; [12]
  Viral Shedding by qRT-PCR, AUC, median: 10.65 log10 copies/mL*Day
  Viral Shedding by qRT-PCR, Duration, median: 2.39 days
[6]; [13]
  Viral Shedding by qRT-PCR, AUC, median: 0.45 log10 copies/mL*Day
  Viral Shedding by qRT-PCR, Duration, median: 0.00 days
[6]; [14]
  Viral Shedding by qRT-PCR, AUC, median: 3.45 log10 copies/mL*Day
  Viral Shedding by qRT-PCR, Duration, median: 0.71 days
